# Measured values taken from US10076535B2, “Use of CPG oligonucleotides co-formulated with an antibiotic to accelerate wound healing” (THE UNITED STATES OF AMERICA, as represented by the …, priority 2012, dated 2018).
# Entries after “also recorded” stand apart in the source; their conditions may differ.
# How the values were obtained:
# IFNa = assay: Quantitative RT-PCR of mRNA at the wound site; assay type: in vivo, mice; conditions: day 3 after biopsy
# Method: (§1) Tissue from the biopsy site was excised, homogenized in Trizol, and extracted with chloroform. […] 1 μg of total RNA was reverse-transcribed using the QUANTITECT™ Reverse Transcription. Kit (QIAGEN®). Purified cDNA was used as the template for quantitative RT-PCR conducted using pre-designed primer/probe sets for interleucin (IL)-1β, CCL2, IFNa, IFNβ, basic fibroblast growth factor (FGF), transforming growth factor (TGF)β, and glyceraldehyde 3-phosphate dehydrogenase (GAPDH) (Applied Biosystems, Foster City, Calif.). Gene expression levels were analyzed using the STEPONEPLUS™ RT-PCR system (APPLIED BIOSYSTEMS®). All reagents and probes used in this system were purchased from APPLIED BIOSYSTEMS®.
# IL-1β mRNA = assay: Quantitative RT-PCR of mRNA at the wound site; assay type: in vivo, mice; conditions: added to antibiotic ointment; day 3; p<0.05
# Method: as §1
# IFNβ = assay: Quantitative RT-PCR of mRNA at the wound site; assay type: in vivo, mice; conditions: day 3 after biopsy
# Method: as §1
# CCL2 mRNA = assay: Quantitative RT-PCR of mRNA at the wound site; assay type: in vivo, mice; conditions: added to antibiotic ointment; day 3; p<0.05
# Method: as §1
# mice = conditions: topical administration; cited from earlier work
# TGFβ = assay: Quantitative RT-PCR of mRNA at the wound site; assay type: in vivo, mice; conditions: Bx sites on day 3
# Method: (§2) FIG. 6 is a bar graph of the effect of antibiotic ointment on the levels of b-FGF and TGFβ mRNA. Mice were treated as described in FIG. 3. Total RNA was extracted from the Bx sites on day 3. Quantitative RT-PCR was performed to detect b-FGF and TGFβ. Results represent the mean±SE of at least 4 independent samples/treatment group. *p<0.05 vs untreated group.
# as §1
# b-FGF = assay: Quantitative RT-PCR of mRNA at the wound site; assay type: in vivo, mice; conditions: Bx sites on day 3
# Method: as §2, §1
# macaques = conditions: topical administration; cited from earlier work
# BALB/c mice = assay: Murine in vivo wound repair model (6 mm full-thickness excisional punch biopsy); conditions: for effect on delay in wound healing caused by antibiotic: TLR ligand incorporated into / co-administered with antibiotic ointment; for effect on wound healing: simply applied over a pre-existing layer of antibiotic ointment or petrolatum
# Method: The wound repair model of Devalaraja et al (J Invest Dermatol 2000; 115: 234-44) was used. Skin on the back was shaved and treated antibiotic ointment or petrolatum. In some studies, mice were injected s.c. at the base of the tail with 50 ug/g of vancomycin and imipenrm/cilastatin (Fernandez et al., Antimicrob Agents Chemother 2010; 54: 116-25, 2010). Fourteen days later, the mice were anesthetized by intraperitoneal injection of ketamine (80 μg/g) plus xylazine (10 ug/g). The skin on the back was gently cleaned with PBS. A 6 mm full-thickness excisional punch biopsy (including the Pannilulus carnosus) was taken using an ACU-PUNCH® (Fort Lauderdale, Fla.) from the right and left upper paravertebral region of each animal. Individual biopsy sites were coated with 100 μl of antibiotic ointment±50 μg CpG ODN and/or 5 μg IMQ, and then covered with nonadhesive sterile gauze (Sato et al., Wound Repair Regen 2010; 18: 586-93). Mice were wrapped with a form-fitting bandage to further protect the biopsy sites. Wound contraction was recorded every other day by digital photography and changes calculated using NIH Image J software (available on the internet, version 1.37). Each treatment was tested and results averaged in a minimum of five independent animals/group.
# A well-established murine model of wound healing was used to evaluate the effect of antibiotic treatment on the rate of wound repair (Devalaraja et al., J Invest Dermatol 2000; 115: 234-44). Identical full-thickness excisional biopsies were taken from skin sites treated with either antibiotic ointment or petrolatum (different treatments were administered to contralateral sides of each animal). Sequential photographs provided a permanent record of the speed of wound closure. Untreated biopsy sites and sites treated with petrolatum (ointment control), healed at nearly identical rates.
Compound,expression of IFNa at the biopsy site (IFNa),effect on antibiotic-reduced IL-1β mRNA level (IL-1β mRNA),expression of IFNβ at the biopsy site (IFNβ),effect on antibiotic-reduced CCL2 mRNA level (CCL2 mRNA),wound closure (mice),expression of mRNA encoding TGFβ (TGFβ),expression of b-FGF at the wound site (b-FGF),wound closure (macaques),effect on delay in wound healing caused by antibiotic (BALB/c mice),effect on wound healing (BALB/c mice)
"CpG ODN: Phosphorothioate K-type CpG ODN 1555, sequence GCTAGACGTTAGCGT, SEQ ID NO: 30 (DNA, all phosphorothioate, methylation of C not given here)",reversed,corrected these defects,reversed,corrected these defects,significantly accelerated wound closure,up-regulated,increased,significantly accelerated wound closure,completely corrected the delay in wound healing; also recorded: reversed,no effect on wound healing
"CC(C)Cn1cnc2c(N)nc3ccccc3c21 [IMQ, 1-isobutyl-1H-imidazo[4,5-c]quinolin-4-amine, reference compound]",reversed,,reversed,to a lesser extent IMQ corrected these defects,,up-regulated,increased,,completely corrected the delay in wound healing; also recorded: reversed,no effect on wound healing
